Measured values reported in patent publication US8277839B2, “Oral pharmaceutical composition of anilinopyrimidine, preparation and use thereof” (Ares Trading S.A., priority 2006, dated 2012).
In brackets after ≈: the same amount, converted by molar mass.

Columns and labels:
[1] = visual solubility test (apparent solubility in different excipients); format: physicochemical; conditions: for solubility: thermodynamic from solid
Procedure: Subsequently in order to analyze the solubility of the anilinopyrimidine of Formula (I) and to identify the preferred excipients, ten solutions of batch FD050007 and ten solution of the starting batch 61569-02 were prepared and analized with a visual solubility test.
A data summary for the anilinopyrimidine derivative of Formula (I) apparent solubility in different excipients is given in Table 2.

[2] = tested on: primary fresh cells from Acute Myeloid Leukemia (AML) patients; conditions: most primary fresh cells from AML patients; cited from earlier work
[3] = in Cremophor EL (castor oil-ethylene oxide)
[4] = in Labrafil M1944CS (oleoyl macrogol glyceride)

Row | solubility ([1]; HP-β-CD, aqueous with cosolvent or surfactant or cyclodextrin, in HP-β-CD) [mg/mL] | solubility ([1]; Labrasol (caprylocapryoyl macrogol glyceride), oil or lipid, in Labrasol (caprylocapryoyl macrogol glyceride)) [mg/mL] | solubility ([1]; Transcutol HP, organic solvent or mixture, in Transcutol HP) [mg/mL] | apparent solubility ([1]; in Capmul GMO-50) [mg/mL] | apparent solubility ([1]; in Capmul MCM C10 (glyceril monocaprate)) [mg/mL] | apparent solubility ([1]; in Capmul MCM-Lutrol E600 1:1) [mg/mL] | apparent solubility [1, 3] | apparent solubility [1, 4] | apparent solubility ([1]; in Lutrol E600 (PEG 600)) [mg/mL] | apparent solubility ([1]; in Vitamin E TPGS) | solubility ([1]; Capmul GMO-50, oil or lipid, in Capmul GMO-50) [mg/mL] | solubility ([1]; Capmul MCM C10 (glyceril monocaprate), oil or lipid, in Capmul MCM C10 (glyceril monocaprate)) [mg/mL] | solubility ([1]; Capmul MCM-Lutrol E600 1:1, organic solvent or mixture, in Capmul MCM-Lutrol E600 1:1) [mg/mL] | solubility ([1]; Lutrol E600 (PEG 600), organic solvent or mixture, in Lutrol E600 (PEG 600)) [mg/mL] | apparent solubility ([1]; in Labrasol (caprylocapryoyl macrogol glyceride)) | apparent solubility ([1]; in Transcutol HP) | solubility, milled versus starting batch ([1]; in particular in Capmul MCM C10, Lutrol E600 and Capmul MCM-Lutrol E600 1:1) | SMILES | cell death [2]
1 | 5.75 (≈ 13.2 mM) | 26.3 (≈ 60.3 mM) | 26.2 (≈ 60.1 mM) | 19.6 | 54 | 115 | Suspension | Suspension | 115 | Solid | – | – | – | – | – | – | – | CC(=O)N1CCN(C(=O)c2ccc(Nc3nccc(-c4ccc(Cl)cc4)n3)cc2)CC1 [FD050007, 1-(4{4-[4-(4-Chloro-phenyl)-pyrimidin-2-ylamino]-benzoyl}-piperazin-1-yl)-ethanone] | –
2 | – | – | – | – | – | – | Suspension | Suspension | – | Solid | 20.2 | 59.5 | 115 | 104 | Suspension | Suspension | – | CC(=O)N1CCN(C(=O)c2ccc(Nc3nccc(-c4ccc(Cl)cc4)n3)cc2)CC1 [Formula 61569-02, 1-(4{4-[4-(4-Chloro-phenyl)-pyrimidin-2-ylamino]-benzoyl}-piperazin-1-yl)-ethanone] | –
3 | – | – | – | – | – | – | – | – | – | – | – | – | – | – | – | – | better solubility when milled | CC(=O)N1CCN(C(=O)c2ccc(Nc3nccc(-c4ccc(Cl)cc4)n3)cc2)CC1 [Formula (I), 1-(4{4-[4-(4-Chloro-phenyl)-pyrimidin-2-ylamino]-benzoyl}-piperazin-1-yl)-ethanone] | induces cell death
